Values of other authors in patent US11672748B2, “Aqueous hair conditioner compositions containing solubilized anti-dandruff actives” (The Procter & Gamble Company, priority 2020, dated 2023).

Settings: in water

Solubility in H2O (g/L) | Compound
(lower than 0.1) g/L | CCCCCCCCCCCC(=O)N(C)CC(=O)OC(C)C [Isoropyl N-Lauroyl Sarcosinate]
Negligible (lower than 0.1) g/L | C=CC(C)CCCC(C)(C)O (centres unmarked) [Dihydro Myrcenol]
